Data on 3 compounds can be found in PMC6777777 (PLoS ONE, 2019).

Data set [1] addresses T1, nicotinic acetylcholine receptor (nAChR) from Torpedo californica (Tetronarce californica, UniProt P02710+P02712+P02714+P02718).
T1 construct: flash-frozen Torpedo electric organ was purchased from Aquatic Research Consultants (San Pedro, CA); tissue Aquatic Research Consultants (San Pedro, CA); host or cells: Torpedo electric organ; Membranes were solubilized in cholate, reconstituted in asolectin liposomes and microinjected as protein into Xenopus oocytes
In words: Two-electrode voltage clamp of oocytes injected with Torpedo nAChRs: inhibition of acetylcholine-stimulated current. It counts as cell-based. The settings on record: seen at ≥ 100 μM inhibitor, 30 μM acetylcholine. The method, then: (§1) Sixteen hours after injection, the oocytes were clamped using a TEVC system. All ligands were dissolved in modified Barth’s solution at the indicated pH and were perfused into the chamber using a gravity-flow system. Thyroid hormones were initially dissolved in 0.1 M NaOH. […] Acetylcholine was applied to the bath surrounding the oocyte using a gravity-flow system at 10–13 mL/min. […] Each ligand perfusion lasted 60–70 seconds; after each perfusion, the bath solution was exchanged with ligand-free buffer until the current response signal had returned to baseline for at least 120 seconds before the next application of ligand(s). Data were recorded using iWorx LabScribe v1.959.

Data set [2] has as its target T1, nicotinic acetylcholine receptor (nAChR) from Torpedo californica. As to the kind of experiment: TEVC desensitization kinetics: decay response of nAChR current, slow component of two-exponential fit. It counts as cell-based. On the set-up: unit not given here. The method, then:
as §1
The data were then trimmed to begin with the response as it reached 0.96 of the response peak (to avoid false inflection points by signal noise just after the response’s maximum point), and end 35 seconds post-peak. The data were then fit to a two-degree exponential function (i.e., slow and fast response; y=a×e^−(x/A1)+b×e^−(x/A2) ). […] For each ligand/environmental condition (n = 3, per condition), decay response and amplitude were calculated and averaged.

The nature of data set [3]: Titration curve of T3 (pK values). The data set is classed as physicochemical.
Data set [4] has as its target T1, nicotinic acetylcholine receptor (nAChR) from Torpedo californica. As to the kind of experiment: Two-electrode voltage clamp: inhibition of carbachol-stimulated nAChR current. The data set is classed as cell-based.

T1 sequence (P02710 25-461): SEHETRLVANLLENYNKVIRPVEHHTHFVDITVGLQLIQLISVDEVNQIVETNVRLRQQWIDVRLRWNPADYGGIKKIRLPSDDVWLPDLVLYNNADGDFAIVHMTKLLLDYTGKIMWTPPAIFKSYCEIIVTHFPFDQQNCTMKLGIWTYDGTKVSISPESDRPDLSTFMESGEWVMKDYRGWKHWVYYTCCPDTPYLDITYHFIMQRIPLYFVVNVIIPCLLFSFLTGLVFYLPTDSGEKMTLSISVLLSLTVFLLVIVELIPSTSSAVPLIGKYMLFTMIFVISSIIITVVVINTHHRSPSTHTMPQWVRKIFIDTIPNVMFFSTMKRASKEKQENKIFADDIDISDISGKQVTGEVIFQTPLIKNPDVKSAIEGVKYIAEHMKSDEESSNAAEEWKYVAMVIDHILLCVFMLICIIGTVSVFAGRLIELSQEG
T1 sequence (P02712 25-493): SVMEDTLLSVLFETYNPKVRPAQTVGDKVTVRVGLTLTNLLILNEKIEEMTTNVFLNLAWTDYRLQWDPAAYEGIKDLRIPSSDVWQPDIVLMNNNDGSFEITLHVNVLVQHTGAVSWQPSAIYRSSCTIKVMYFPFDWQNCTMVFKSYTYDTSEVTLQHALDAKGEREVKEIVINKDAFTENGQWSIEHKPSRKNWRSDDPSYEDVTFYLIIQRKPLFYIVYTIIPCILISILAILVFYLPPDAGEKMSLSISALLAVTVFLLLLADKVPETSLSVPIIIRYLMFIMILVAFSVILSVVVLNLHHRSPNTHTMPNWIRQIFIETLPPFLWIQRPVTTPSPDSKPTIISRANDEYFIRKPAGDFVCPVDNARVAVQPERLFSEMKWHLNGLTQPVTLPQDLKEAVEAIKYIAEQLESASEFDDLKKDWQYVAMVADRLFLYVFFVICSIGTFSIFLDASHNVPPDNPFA
T1 sequence (P02714 18-506): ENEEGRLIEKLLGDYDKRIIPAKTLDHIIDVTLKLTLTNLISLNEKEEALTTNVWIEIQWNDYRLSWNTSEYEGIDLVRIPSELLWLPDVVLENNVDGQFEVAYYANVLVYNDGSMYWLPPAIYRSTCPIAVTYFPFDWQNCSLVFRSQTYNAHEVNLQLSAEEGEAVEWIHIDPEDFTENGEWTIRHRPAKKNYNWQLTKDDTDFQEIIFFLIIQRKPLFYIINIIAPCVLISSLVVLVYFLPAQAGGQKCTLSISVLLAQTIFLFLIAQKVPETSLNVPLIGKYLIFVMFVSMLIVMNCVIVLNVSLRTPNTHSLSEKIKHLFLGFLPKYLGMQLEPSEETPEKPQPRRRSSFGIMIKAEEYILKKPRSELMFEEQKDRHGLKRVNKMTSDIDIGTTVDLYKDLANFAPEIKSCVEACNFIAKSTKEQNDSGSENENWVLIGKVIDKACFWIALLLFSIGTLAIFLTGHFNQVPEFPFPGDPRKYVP
T1 sequence (P02718 22-522): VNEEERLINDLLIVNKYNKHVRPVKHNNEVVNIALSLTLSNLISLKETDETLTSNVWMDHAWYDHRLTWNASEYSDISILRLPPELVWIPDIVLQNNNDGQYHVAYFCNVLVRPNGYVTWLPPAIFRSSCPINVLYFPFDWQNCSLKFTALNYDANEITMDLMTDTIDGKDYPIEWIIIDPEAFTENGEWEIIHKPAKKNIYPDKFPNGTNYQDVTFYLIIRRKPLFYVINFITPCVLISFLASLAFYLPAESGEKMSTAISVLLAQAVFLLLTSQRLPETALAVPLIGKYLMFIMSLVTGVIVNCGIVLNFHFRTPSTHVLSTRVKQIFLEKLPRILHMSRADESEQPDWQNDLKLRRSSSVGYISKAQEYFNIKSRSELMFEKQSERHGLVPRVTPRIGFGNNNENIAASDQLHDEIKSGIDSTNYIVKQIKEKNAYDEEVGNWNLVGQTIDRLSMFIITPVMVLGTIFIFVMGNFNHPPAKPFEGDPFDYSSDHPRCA

As for pregnenolone sulfate [PS], the “apparent maximal effect: reduction of the nAChR control response” value in data set [1] worked out at 81 ± 4%. Further, the “Decay Response Mean” value in data set [2] (dose 0.1 μM, pH 6, 30 μM acetylcholine) is 17.0; in data set [2] (dose 0.1 μM, pH 6.5, 30 μM acetylcholine), 26.2; in data set [2] (dose 0.1 μM, pH 7, 30 μM acetylcholine), 32.7; in data set [2] (dose 0.1 μM, pH 7.5, 30 μM acetylcholine), 32.3; in data set [2] (dose 0.1 μM, pH 8, 30 μM acetylcholine), 20.8; in data set [2] (dose 0.1 μM, pH 8.5, 30 μM acetylcholine) it was 7.9. For the same compound, the “Decay Response Mean” value in data set [2] (dose 0.1 μM, pH 9, 30 μM acetylcholine) turned out to be 31.9; in data set [2] (dose 1 μM, pH 6, 30 μM acetylcholine), 8.1; in data set [2] (dose 1 μM, pH 6.5, 30 μM acetylcholine), 24.9; in data set [2] (dose 1 μM, pH 7, 30 μM acetylcholine), 13.0; in data set [2] (dose 1 μM, pH 7.5, 30 μM acetylcholine), 11.9; in data set [2] (dose 1 μM, pH 8, 30 μM acetylcholine), 9.4. Besides, the “Decay Response Mean” value is on record as 1.2 in data set [2] (dose 1 μM, pH 8.5, 30 μM acetylcholine); 18.5 in data set [2] (dose 1 μM, pH 9, 30 μM acetylcholine); 10.5 in data set [2] (dose 10 μM, pH 6, 30 μM acetylcholine); 11.00 in data set [2] (dose 10 μM, pH 6.5, 30 μM acetylcholine); 4.6 in data set [2] (dose 10 μM, pH 7, 30 μM acetylcholine); 4.8 in data set [2] (dose 10 μM, pH 7.5, 30 μM acetylcholine). In addition, the “Decay Response Mean” value amounted to 3.0 in data set [2] (dose 10 μM, pH 8, 30 μM acetylcholine) and 3.2 in data set [2] (dose 10 μM, pH 8.5, 30 μM acetylcholine).
With `N[C@@H](Cc1cc(I)c(Oc2ccc(O)c(I)c2)c(I)c1)C(=O)O` [T3, L-3,3’,5-triiodothyronine], in data set [3], the “pK3, hydroxy group” value is reported as 12.25.
As for `CC(=O)[C@H]1CC[C@H]2[C@@H]3CC[C@H]4C[C@H](O)CC[C@]4(C)[C@H]3CC[C@]12C` [Allopregnanolone, 3α-hydroxy-5α-pregnan-20-one], the midpoint of inhibition in data set [4], the IC50, lay at 20 µM.
